Reference: US20180104059A1, “Delivery of Therapy to Living Tissue” (President and Fellows of Harvard College, priority 2015, published 2018)

What was measured:
[1] = test system: canine model of myocardial infarction; details: ONO1301 alone or in combination with a VRD; cited from earlier work
[2] = in vivo; cited from earlier work
[3] = Delivery of fluorescently tagged protein via thericardium port versus intraperitoneal, fluorescence at target site; type: in vivo, rat; details: after three hours
Text: A bovine serum albumin solution tagged with a fluorescent molecule (Vivotag 800) was delivered via the port 18. […] The bioluminescence from the dose is shown for intraperitoneal delivery (at left) and for direct delivery via the thericardium 10 is shown in FIG. 28.

Q: Which results are given for `O=C(O)COc1cccc2c1CCC=C2CCO/N=C(\c1ccccc1)c1cccnc1` [ONO1301]?
A: HGF, VEGF and SDF-1 in the myocardium [1]: upregulation; myocardial vascularization [1]: increase in myocardial vascularization

Q: Which “efficacy with intrapericardial delivery compared to IV administration” value [2] does the source give for `CC(C)NCC(O)COc1ccc(CC(N)=O)cc1` (centres unmarked) [atenolol] here?
A: Its value is “improved the efficacy”.

Q: For “bovine serum albumin: bovine serum albumin solution tagged with a fluorescent molecule (Vivotag 800), model protein”, which “protein at the target site (fluorescence)” value ([3]; delivered via the port) is on record?
A: Its value is “sustained concentration”.

Q: And the “protein at the target site (fluorescence)” value ([3]; same amount injected intraperitoneally)?
A: The value was “undetectable quantity”.
